Read-outs that look alike come from different tables or passages of the source.
Columns and labels:
[1] = test system: Trichophyton mentagraphytes MTU-19024; test: Minimum inhibitory concentration, anti-Trichophyton mentagraphytes activity test, strain MTU-19024; format: cell-based; settings: Trichophyton, MTU19024, Sabouraud's dextrose agar, 27° C., a week
Method: (§1) The activity was tested by the 10 time-step dilution test, using the Sabouraud's dextrose agar culture medium (2% dextrose, 1% pepton and 1.5% agar; pH 6.5±). A platinum loopful (about 10 μl) spore suspension (prepared from a reserved strain of Trichlophyton mentagraphytes and containing 1×10^6 cells/ml) was applied in the form of drawn lines on a plate of a culture medium containing the active ingredients. The culture medium plate was kept at 27° C. for a week and then visually observed to see if any colonies had formed. The minimum inhibitory concentration was defined as the minimum concentration with which formation of distinct colonies on the culture medium plate was not observed.

[2] = test system: Trichophyton mentagraphytes MTU-19031; test: Minimum inhibitory concentration, anti-Trichophyton mentagraphytes activity test, strain MTU-19031; format: cell-based; settings: Trichophyton, MTU19031, Sabouraud's dextrose agar, 27° C., a week
Method: as §1

[3] = test system: Trichophyton violaceum MTU-19021; test: Growth inhibition test; format: cell-based; settings: read-out: Minimum inhibitory concentration
[4] = test system: Microsporum canis MTU-20010; test: Growth inhibition test; format: cell-based; settings: read-out: Minimum inhibitory concentration
[5] = test system: Microsporum gypseum MTU-20005; test: Growth inhibition test; format: cell-based; settings: Nannizzia gypsea, read-out: Minimum inhibitory concentration
[6] = test system: Epidermophyton floccosum MTU-21007; test: Growth inhibition test; format: cell-based; settings: MTU21007, 336 h, read-out: Minimum inhibitory concentration
[7] = test system: Fonsecaea compactum MTU-22023; test: Growth inhibition test; format: cell-based; settings: Fonsecaea compacta, read-out: Minimum inhibitory concentration
[8] = test system: Phialophora verrucosa MTU-23001; test: Growth inhibition test; format: cell-based; settings: read-out: Minimum inhibitory concentration
[9] = test system: Histoplasma capsulatum MTU-16001; test: microbe, parasite or virus in culture; format: cell-based; settings: MTU16001, 336 h, read-out: Minimum inhibitory concentration
[10] = test system: Blastomyces dermatitidis MTU-17009; test: Growth inhibition test; format: cell-based; settings: MTU17009, 336 h, read-out: Minimum inhibitory concentration
[11] = test system: Aspergillus fumigatus MTU-06002; test: Growth inhibition test; format: cell-based; settings: MTU06002, 168 h, read-out: Minimum inhibitory concentration
[12] = test system: Aspergillus niger MTU-06051; test: Growth inhibition test; format: cell-based; settings: read-out: Minimum inhibitory concentration
[13] = test system: Fusarium pedrosoi MTU-22009; test: Growth inhibition test; format: cell-based; settings: MTU22009, 168 h, after 7 days cultivation at 27° C., read-out: Minimum inhibitory concentration
[14] = test system: Cryptococcus neoformans MTU-13002; test: Growth inhibition test; format: cell-based; settings: MTU13002, 48 h, read-out: Minimum inhibitory concentration
ICR mice [15] = test: Acute toxicity test using ICR mice; format: in vivo
Method: The acute toxicity was tested by applying active ingredients of the antifungal compositions of this invention as shown in Table 4 to ICR mice (male, age-5 weeks, 25 g ±weight, 5 mice in each group). Observation continued for 3 more weeks starting from the last administration.

ICR mice [16] = test: Skin irritation test using ICR mice; format: in vivo; settings: Cutaneous, 1% direct application once a day for 14 consecutive days
[17] = test system: Trichophyton mentagraphytes; test: Medical treatment of guinea pigs experimentally infected with Trichophyton mentagraphytes; settings: 1% emulsion once a day; for Scope of symptoms (0-4): mean of 6 guinea pigs; for Reversed cultivation: skin cut into 10 pieces, cultivated 14 days at 27° C.
[18] = after 14 days cultivation at 27° C.
[19] = Intraperitoneal, 100 mg/kg once a day for 6 consecutive days
[20] = Intraperitoneal, 500 mg/kg once
[21] = Oral, 500 mg/kg once a day for 6 consecutive days

COc1cccc(N(C)C(=S)Oc2ccc3ccccc3c2)n1 [compound 7, O--2-Naphthyl N--methyl-N--(6-methoxy-2-pyridyl)thiocarbamate]
1.66: Scope of symptoms (0-4) ([17]; 13 days after the infection)
1/60: Reversed cultivation [17]
0.05 µg/mL: MIC [1] | MIC [2] | MIC ([3]; MTU19021, 168 h, after 7 days cultivation at 27° C.) | MIC ([3]; MTU19021, 336 h, after 14 days cultivation at 27° C.) | MIC ([4]; MTU20010, 168 h, after 7 days cultivation at 27° C.) | MIC ([4]; MTU20010, 336 h, after 14 days cultivation at 27° C.) | MIC ([5]; MTU20005, 168 h, after 7 days cultivation at 27° C.) | MIC ([5]; MTU20005, 336 h, after 14 days cultivation at 27° C.) | MIC [6, 18] | MIC ([12]; MTU06051, 168 h, after 7 days cultivation at 27° C.) | MIC ([12]; MTU06051, 336 h, after 14 days cultivation at 27° C.) | MIC ([14]; after 2 days cultivation at 27° C.)
0.33: Scope of symptoms (0-4) ([17]; 21 days after the infection)
0: Number of deaths (ICR mice [15]; [19]) | Number of symptomatic weight decrease (ICR mice [15]; [19]) | Number of deaths (ICR mice [15]; [20]) | Number of symptomatic weight decrease (ICR mice [15]; [20]) | Number of deaths (ICR mice [15]; [21]) | Number of symptomatic weight decrease (ICR mice [15]; [21]) | Number of skin irritation symptoms (ICR mice [16]) | Scope of symptoms (0-4) ([17]; 5 days after the infection)
0.5 µg/mL: MIC ([7]; MTU22023, 168 h, after 7 days cultivation at 27° C.) | MIC ([7]; MTU22023, 336 h, after 14 days cultivation at 27° C.) | MIC ([8]; MTU23001, 168 h, after 7 days cultivation at 27° C.) | MIC ([8]; MTU23001, 336 h, after 14 days cultivation at 27° C.) | MIC [9] | MIC [10, 18] | MIC ([11]; after 7 days cultivation at 27° C.) | MIC [13]
0.66: Scope of symptoms (0-4) ([17]; 17 days after the infection)
1.33: Scope of symptoms (0-4) ([17]; 9 days after the infection)

COc1cccc(N(C)C(=S)Oc2ccc3c(c2)CCCC3)n1 [compound 11, O--5,6,7,8-Tetrahydro-2-naphthyl N--N--(6-methoxy-2-pyridyl)-N--methylthiocarbamate]
0.66: Scope of symptoms (0-4) ([17]; 5 days after the infection)
0.05 µg/mL: MIC [1] | MIC [2] | MIC ([3]; MTU19021, 168 h) | MIC ([3]; MTU19021, 336 h) | MIC ([4]; MTU20010, 168 h) | MIC ([4]; MTU20010, 336 h) | MIC ([5]; MTU20005, 336 h) | MIC [6] | MIC ([12]; MTU06051, 168 h) | MIC ([12]; MTU06051, 336 h)
0: Number of deaths (ICR mice [15]; [19]) | Number of symptomatic weight decrease (ICR mice [15]; [19]) | Number of deaths (ICR mice [15]; [20]) | Number of symptomatic weight decrease (ICR mice [15]; [20]) | Number of deaths (ICR mice [15]; [21]) | Number of symptomatic weight decrease (ICR mice [15]; [21]) | Number of skin irritation symptoms (ICR mice [16]) | Scope of symptoms (0-4) ([17]; 17 days after the infection) | Scope of symptoms (0-4) ([17]; 21 days after the infection)
0.5 µg/mL: MIC ([5]; MTU20005, 168 h) | MIC ([7]; MTU22023, 168 h) | MIC ([7]; MTU22023, 336 h) | MIC ([8]; MTU23001, 168 h) | MIC ([8]; MTU23001, 336 h) | MIC [9] | MIC [10] | MIC [11] | MIC [14]
2.0: Scope of symptoms (0-4) ([17]; 9 days after the infection) | Scope of symptoms (0-4) ([17]; 13 days after the infection)
1/60: Reversed cultivation [17]

Reference: patent publication US4621090A, “Antifungal compositions” (Toyo Soda Manufacturing Co., Ltd., priority 1983, dated 1986)
